In patent publication US12564595B2, “Prophylactic and therapeutic pharmaceutical agent for HIV infectious diseases characterized by comprising combination of integrase inhibitor and anti-HIV agent” (Shionogi & Co., Ltd., priority 2019, dated 2026):
pEC50: −log10 of the molar value.

Tests used:
[1] = Test Example 8: metabolic stability test; format: in vitro ADME, human; settings: pooled human liver microsomes, 30 min at 37° C., NADPH, compound concentration 0.5 μmol/L
How it was run: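 Pooled human liver microsomes (0.5 mg protein/mL, Tris-HCl pH 7.4) incubated with compound and 1 mmol/L NADPH for 0 or 30 min at 37° C. After methanol/acetonitrile quench, remaining parent was quantified by LC/MS/MS or SPE/MS and expressed as % of the 0 min amount.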

[2] = tested on: HIV mutant strain 2 (E92Q/E138T/G140S/Q148H); experiment: Test Example 2: resistance evaluation test (HeLa-CD4 reporter), mutant strain 2; format: cell-based; settings: FC=EC50 of mutant strain/EC50 of wild strain; HeLa-CD4 cells
How it was run: (§1)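 HeLa-CD4 reporter cells were infected with wild-type or mutant HIV in the presence of serially diluted compound and cultured 3 days. Cell lysates were read by chemiluminescent reporter assay after about 1 h at room temperature. Fold change was calculated as mutant EC50 divided by wild-type EC50.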

[3] = tested on: HIV mutant strain 1 (E138K/G140S/Q148H/N155H); experiment: Test Example 2: resistance evaluation test (HeLa-CD4 reporter), mutant strain 1; format: cell-based; settings: FC=EC50 of mutant strain/EC50 of wild strain; HeLa-CD4 cells
How it was run: as §1

HIV = experiment: microbe, parasite or virus in culture; format: cell-based; settings: Human immunodeficiency virus 1, MT4, 96 h, read-out: EC50 (50% HIV inhibition concentration), MT-4 cells, HIV, cultured four days, MTT; compounds of formula (I) of (A)
Description: A serial dilution series of test samples was prepared in 96-well microplates (50 μL/well).
100 μL/well in each case were dispensed onto plates having test samples of 2.5×10^5/mL MT-4 cell suspension, and HIV virus solution was then dispensed thereto in the amount of 50 μL/well. Mixing was performed using a plate mixer and culturing was performed for four days in a CO2 incubator. MTT (3-(4,5-dimethylthiazol-2-yl)-2,5-diphenyltetrazolium bromide) liquid was dispensed into each well in the amount of 30 μL in each case. The reaction was conducted for 1 h in a CO2 incubator. 150 μL of supernatant were removed from each well, taking care not to aspirate any cells. 150 μL of cell solution were added, and thorough mixing was performed with a plate mixer until all the cells had been dissolved. The optical absorbance of the mixed plates was measured at two wavelengths: 560 nm/690 nm, with a microplate reader.

SMILES	Remaining percentage [1] [%]	FC in respect of mutant strain 2 (E92Q/E138T/G140S/Q148H) [2]	FC in respect of mutant strain 1 (E138K/G140S/Q148H/N155H) [3]	pEC50 (HIV)
CN1C(=O)c2c(O)c(=O)c(-c3nnc(Cc4cccc(Cl)c4F)s3)cn2N2CCOC[C@@H]12 [II-122]	102	25	30	9.62
C[C@@H]1CCC[C@H]2N(C)C(=O)c3c(O)c(=O)c(-c4nnc(Cc5ccc(F)cc5F)s4)cn3N12 [II-124]	103	11	6.8	8.46
CCN1C(=O)c2c(O)c(=O)c(-c3nnc(Cc4c(F)cc(F)cc4F)s3)cn2N2[C@H](C)CCC[C@@H]12 [II-125]	88.5	26	11	8.85
CCN1C(=O)c2c(O)c(=O)c(-c3nnc(Cc4c(F)cc(F)cc4F)s3)cn2N2C[C@@H]3CC[C@@H](O3)[C@@H]12 [II-126]	97.2	20	17	9.22
CCN1C(=O)c2c(O)c(=O)c(-c3nnc(Cc4ccc(F)cc4F)s3)cn2N2C[C@@H]3CC[C@@H](O3)[C@@H]12 [II-127]	100	19	7.9	9.13
CCN1C(=O)c2c(O)c(=O)c(-c3nnc(Cc4ccc(F)cc4)s3)cn2N2C[C@@H]3CC[C@@H](O3)[C@@H]12 [II-128]	103	29	20	9.18
CCN1C(=O)c2c(O)c(=O)c(-c3nnc(Cc4ccc(F)cc4F)s3)cn2N2C[C@@H]3CC[C@@H](C3)[C@@H]12 [II-130]	92.9	3.9	2.5	9.18
CCN1C(=O)c2c(O)c(=O)c(-c3nnc(Cc4c(F)cc(F)cc4F)s3)cn2N2C[C@@H]3CC[C@@H](C3)[C@@H]12 [II-131]	83.4	3.5	2.3	9.18
CN1C(=O)c2c(O)c(=O)c(-c3nnc(Cc4ccc(F)cc4F)s3)cn2N2C[C@@H]3CC[C@@H](C3)[C@@H]12 [II-138]	93.9	11	15	9.85
CCN1C(=O)c2c(O)c(=O)c(-c3nnc(Cc4c(F)cc(F)cc4F)s3)cn2N2CC[C@@H](C)C[C@@H]12 [II-143]	82.5	3.6	3	8.77
C[C@@H]1CCN2[C@@H](C1)N(C)C(=O)c1c(O)c(=O)c(-c3nnc(Cc4c(F)cc(F)cc4F)s3)cn12 [II-144]	94.2	6.1	6.1	9.16
CCN1C(=O)c2c(O)c(=O)c(-c3nnc(Cc4c(F)cc(F)cc4F)s3)cn2N2CC[C@H](C)C[C@@H]12 [II-147]	91.5	7.3	5.1	8.74
CCN1C(=O)c2c(O)c(=O)c(-c3nnc(Cc4cc(F)c(F)cc4F)s3)cn2N2C[C@@H]3CC[C@@H](C3)[C@@H]12 [II-148]	71.7	6.6	8.3	8.28
CN1C(=O)c2c(O)c(=O)c(-c3nnc(Cc4c(F)cc(F)cc4F)s3)cn2N2C[C@@H]3CC[C@@H](C3)[C@@H]12 [II-149]	96.5	12	14	9.22
